Results as given in BindingDB's records for doi:10.1016/0014-2999(96)00088-x (University Clinic For Psychiatry, 1996).
“And” between values parts separate entries of the source, which are not always exact repeats. Equal entries are not always repeated.

Columns and labels:
[1] = molecular target: Gamma-aminobutyric acid receptor subunit alpha-4 (Homo sapiens, UniProt P48169)
[2] = molecular target: T1, Gamma-aminobutyric acid receptor subunit alpha-1 (Homo sapiens, UniProt P14867)
T1 sequence (P14867 whole entry): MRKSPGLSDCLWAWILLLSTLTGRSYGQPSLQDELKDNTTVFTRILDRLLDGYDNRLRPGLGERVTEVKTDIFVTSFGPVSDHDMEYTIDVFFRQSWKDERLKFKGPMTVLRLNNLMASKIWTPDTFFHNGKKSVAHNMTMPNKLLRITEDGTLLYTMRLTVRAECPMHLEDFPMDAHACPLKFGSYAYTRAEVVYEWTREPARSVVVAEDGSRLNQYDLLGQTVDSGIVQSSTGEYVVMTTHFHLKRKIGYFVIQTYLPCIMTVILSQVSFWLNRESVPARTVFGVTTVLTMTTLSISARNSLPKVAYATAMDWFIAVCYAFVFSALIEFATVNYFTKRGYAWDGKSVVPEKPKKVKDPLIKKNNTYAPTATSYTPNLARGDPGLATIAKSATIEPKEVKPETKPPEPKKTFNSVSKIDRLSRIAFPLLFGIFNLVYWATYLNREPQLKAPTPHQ

Gamma-aminobutyric acid receptor subunit alpha-4, sequence (P48169 whole entry): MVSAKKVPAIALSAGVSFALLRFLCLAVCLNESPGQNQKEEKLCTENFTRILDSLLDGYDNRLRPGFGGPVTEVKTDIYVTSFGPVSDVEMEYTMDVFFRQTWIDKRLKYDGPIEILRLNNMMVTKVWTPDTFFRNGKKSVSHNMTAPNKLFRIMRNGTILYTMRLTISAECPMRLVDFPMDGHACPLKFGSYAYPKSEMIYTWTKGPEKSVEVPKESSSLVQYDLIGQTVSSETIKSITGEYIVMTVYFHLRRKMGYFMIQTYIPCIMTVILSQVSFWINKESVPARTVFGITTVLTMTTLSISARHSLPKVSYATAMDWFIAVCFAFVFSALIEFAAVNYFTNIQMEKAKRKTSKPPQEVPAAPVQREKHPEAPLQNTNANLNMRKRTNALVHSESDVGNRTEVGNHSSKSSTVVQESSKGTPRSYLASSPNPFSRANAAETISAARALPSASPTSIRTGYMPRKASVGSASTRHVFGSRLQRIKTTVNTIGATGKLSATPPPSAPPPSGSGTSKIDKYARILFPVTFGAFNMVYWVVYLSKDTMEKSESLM

Structure (SMILES) | Ki [1] | Ki [2] [nM]
O=c1c2cnc3ccccc3c2[nH]n1-c1ccccc1 | 11.9 nM | 0.11
Cc1nnc2ccc(-c3cccc(C(F)(F)F)c3)nn12 | > 10000 nM | 65
COC(=O)c1cc2c(cn1)[nH]c1ccccc12 | 640 nM | 0.5
COCc1c(C(=O)OC(C)C)ncc2[nH]c3ccc(OCc4ccccc4)cc3c12 | 1060 nM | 
CCOC(=O)c1cc2c(cn1)[nH]c1ccccc12 |  | 0.6
O=c1c2cnc3ccccc3c2[nH]n1-c1ccc(Cl)cc1 | 59 nM | 0.26
COc1ccc(-n2[nH]c3c(cnc4ccccc43)c2=O)cc1 [2-(4-Methoxy-phenyl)-2,5-dihydro-pyrazolo[4,3-c]quinolin-3-one (CGS 9895)] | 4 nM | 0.09
CC(C)(C)OC(=O)c1ncn2c1C1CCCN1C(=O)c1c(Br)cccc1-2 (centres undefined) [8-Bromo-7-oxo-3b,4,5,6-tetrahydro-7H-2,6a,11b-triaza-benzo[g]cyclopenta[e]azulene-3-carboxylic acid tert-butyl ester] | 36 nM and 22.5 nM | 0.45
Cc1ccc(-c2nc3ccc(C)cn3c2CC(=O)N(C)C)cc1 [Ambien] | > 10000 nM | 
CNC(=O)c1cc2c(cn1)[nH]c1ccccc12 [CAS_4375] | > 10000 nM | 160
CCCOC(=O)c1cc2c(cn1)[nH]c1ccccc12 [CAS_123662] | 922 nM | 7.1
COc1ccc(-n2[nH]c3c4c(ncc3c2=O)CCCCC4)cc1 [CGS-20625] | 22.4 nM and 77 nM | 0.15
CCc1c(C(=O)OC)ncc2[nH]c3cc(OC)c(OC)cc3c12 [NSC_104999] | 11.3 nM and 20 nM | 7.5
CCOC(=O)c1ncn2c1CN(C)C(=O)c1cc(N=[N+]=[N-])ccc1-2 [RO-154513] |  | 8.1
